# Measurements published in article PMC6178348, “Intranasal delivery of a Fas-blocking peptide attenuates Fas-mediated apoptosis in brain ischemia” (Scientific Reports, 2018).
# Peptide text beside a SMILES is read from it.
# Tests used:
# normal rat brain tissue = assay: H&E and TUNEL staining of brain sections of normal non-ischemic rats after IN inoculation; format: in vivo; settings: H&E and TUNEL stained sections, N = 6 per group
# Description: Brain pathology was analyzed by incubating 2 mm thick brain slices in 2% 2,3,5-triphenyltetrazolium chloride (TTC staining, Sigma) and measuring the infarct volume after fixation using Image J software as previously described. Paraffin-embedded brain sections were also subjected to H&E staining and immunohistochemistry after with an antibody to rat Fas (ab82419, Abcam). Apoptosis in de-paraffinized, rehydrated brain sections was analyzed by TUNEL staining using the In Situ Cell Death Detection Kit (Roche, Germany) in accordance with the manufacturer’s instructions.
# (A) Regional cerebral blood flow (rCBF) in rat’s subject to MCAO. The cerebral blood flow was measured during ligation of CCA, occlusion of MCA and after reperfusion (N=6 per group) and a 9 fold reduction was considered as a confirmation of ischemic stroke injury. (B) Bio-distribution of IN inoculated ctr-FBP-A488 or FBP-A488 at the indicated time points in normal non-ischemic rats that constitute a control group (N=3 per group). Mock treated animals were inoculated with PBS. (C) Representative hematoxylin and eosin (H&E) (upper panel) and TUNEL (lower panel) stained paraffin embedded sections from normal rat inoculated with PBS (Mock), ctr-FBP or FBP […]
# change in tissue morphology and toxicity. Scale bare represents 100µm. ctr-FBP-A488- Alexa488 labeled control peptide, FBP-A488- Alexa488 labeled Fas-blocking peptide.
# [1] = Brain biodistribution of intranasally inoculated A488-labeled peptide in normal and MCAO rats; format: in vivo, Sprague–Dawley rats; settings: intranasal (POD), MCAO rats; fluorescence imaging
# From the text: Figure 3 IN delivered FBP localizes to Fas-expressing brain regions in the MCAO rat model of focal ischemia. (A) Immunohistochemistry for Fas expression in ischemic rat brain after MCAO. Representative images of deparaffinized coronal brain sections from normal or ischemic rats stained with anti-Fas antibody at the designated times post-MCAO are shown. Representative images (upper panel) and cumulative data (lower panel) depicting fluorescence intensities measured in arbitrary pixel values relative to that at the 12 h ‘normal’ rats. Scale bar = 50 µm. The data represent mean ± SD (N = 6 per group). *P < 0.05 at individual time-points, Mann-Whitney U test, ^###P < 0.001; Cumulative data, Two-way ANOVA. […] Representative images (upper panel) and cumulative data (lower panel) depicting fluorescence intensities measured in arbitrary pixel values relative to and normalized based on fluorescence intensities in normal group. […]
# For bio-distribution studies, A488-conjugated FBP was intranasally (IN) administered at 500 μg (1.4 mg/kg) in a final volume of 50 μL (25 μL in each nare) using the POD at 12 h post-MCAO and fluorescence analyzed at designated time points in isolated organs using Image Station 4000 mm (Carestream Rochester, NY) or by flow cytometry of single cell suspensions on a FACS Calibur™ (BD Bioscience, San Jose, CA) and analyzed using the Flowjo software. […]
Compound,Change in brain tissue morphology and toxicity in normal rats (normal rat brain tissue),Clearance of peptide from brain after IN delivery [1]
N[C@@H](Cc1ccc(O)cc1)C(=O)N[C@@H](CS)C(=O)N[C@@H](CC(=O)O)C(=O)N[C@@H](CCC(=O)O)C(=O)N[C@@H](Cc1c[nH]cn1)C(=O)N[C@@H](Cc1ccccc1)C(=O)N[C@@H](CS)C(=O)N[C@@H](Cc1ccc(O)cc1)C(=O)O [FBP] (H-YCDEHFCY-OH),did not shows any change in tissue morphology and toxicity,–
CC(C)[C@H](NC(=O)[C@@H](NC(=O)[C@H](CO)NC(=O)[C@H](CC(N)=O)NC(=O)[C@H](CS)NC(=O)[C@@H](N)Cc1ccc(O)cc1)[C@@H](C)O)C(=O)N[C@@H](CS)C(=O)N[C@@H](Cc1ccc(O)cc1)C(=O)O [ctr-FBP] (H-YCNSTVCY-OH),did not shows any change in tissue morphology and toxicity,cleared within a few hours of treatment
